Counter-ions that a name gives are not always drawn.
How the values were obtained:
[1] = biological target: deoxycytidinedeaminases (dCDA) (Homo sapiens, UniProt P32320); settings: upon injection, extracellularly and intracellularly; cited from earlier work
[2] = test system: Panc-1-Luc tumors; experiment: Orthotopic Panc-1-Luc tumors in nude mice: gemcitabine HCl versus mixture with DHA; assay type: in vivo; settings: about 0.11 mmole/kg each, twice a week, 10 times, started 2 weeks after implantation
Procedure: The doses of both gemcitabine HCl (˜33.7 mg/kg) and DHA (˜35.3 mg/kg) were about 0.11 mmole/kg. Mice were sacrificed in the 8th week after tumor implantation, and the tumors were excised and weighed. The doses were based on the average weight of mice in the same group on the day of injection, and were adjusted only if the weight of an individual mouse was above or below 10% of the average weight.

[3] = test system: advanced pancreatic cancer; settings: cited from earlier work
[4] = test system: BxPC-3 cells; experiment: Anti-proliferative activity, MTT assay, BxPC-3 cells; assay type: cell-based, human; settings: Homo sapiens; BxPC-3 cells, 72 h
Procedure: (§1) The anti-proliferative activity of Gem-DHA was evaluated in Panc-02, TC-1, Panc-1-Luc, and BxPC-3 cell lines. For Panc-02 and TC-1 cells, cells (1,500/well for Panc-02 and 3,000/well for TC-1) were seeded in 96-well plates and incubated at 37° C. and 5% CO2 overnight. The cells were then treated with various concentrations of Gem-DHA or other compounds for 24 h. For BxPC-3 and Panc-1-Luc cells, 3,000 and 1,000 cells/well were used, respectively, and cells were co-incubated with the Gem-DHA for 72 h. Cell viability was determined using an MTT assay as previously described (Naguib YW et al. Mol Pharm. 2014, 11(4), 1239-1249). Gemcitabine HCl was dissolved in cell culture medium, whereas Gem-DHA and DHA were dissolved in dimethylsulfoxide (DMSO). The values of IC50 were calculated using GraphPad Prism (GraphPad software, Inc., La Jolla, CA).

[5] = test system: MIA PaCa-2 cells; experiment: Cytotoxicity of Gem-ARA, MTT assay, MIA PaCa-2 cells; assay type: cell-based, human; settings: Homo sapiens, up to 72 h, mean ± SD (n>3)
Procedure: (§2) To understand the effect of the omega-3 polyunsaturated fatty acid nature of the DHA (i.e., the docosahexaedecanoyl group) in the Gem-DHA on its cytotoxicity against tumor cells, gemcitabine was also conjugated to arachidonic acid, an omega-6 polyunsaturated fatty acid, to synthesize 4-(N)-arachidonyl gemcitabine (Gem-ARA) (FIG. 4). Human pancreatic cancer cells (MIA PaCa-2 or BxPC-3) were seeded (3,000/well) in 96-well plates. After overnight incubation, cells were treated with various concentrations of gemcitabine HCl or Gem-ARA at 37° C., 5% CO2 for up to 72 h. Gemcitabine HCl was dissolved in phosphate buffered saline (PBS, pH 7.4, 10 mM), and Gem-ARA was dissolved in DMSO. The maximum amount of DMSO added per well was 0.9 μL, which was found non-toxic. The number of viable cells after the incubation was determined using an MTT assay as described above. The 50% inhibition concentration (IC50) values were estimated using GraphPad prism 5 parameters curve fittings.

[6] = design: species or system BALB/c mice; settings: female, BALB/c, mouse, in vivo, iv, 75 mg/kg, 1 h
Procedure: The biodistribution of Gem-DHA was further evaluated in healthy BALB/c mice. Briefly, female BALB/c mice (Charles River, 14-16 weeks, n=3) were injected via the tail vein with Gem-DHA in a Tween 80/ethanol/water solution containing 5% (w/v) mannitol at a dose of 75 mg/kg. After 1 h, mice were euthanized to collect pancreas, lung, spleen, liver, heart, and kidneys. Gem-DHA was extracted from the samples and analyzed using HPLC. As a control, mice (n=3) were also injected with gemcitabine HCl (75 mg/kg) in 5% (w/v) mannitol solution and euthanized 1 h later to collect their pancreas. Gemcitabine was extracted using the following method. Briefly, once the pancreas was collected, it was weighed, placed into 0.25 ml of PBS containing 40 μg of tetrahydrouridine (a deoxycytidine deaminase inhibitor) and homogenized using a bead beater. Deoxyuridine (dU, 20 μl of 20 μg/ml) was then added into the homogenate as an internal standard. Acetonitrile was used to precipitate the proteins twice, and gemcitabine content in the supernatant was analyzed using HPLC. […] Therefore, it appeared that Gem-DHA preferred to distribute in pancreatic tissues.

[7] = test system: BxPC-3 cells; experiment: Cytotoxicity of Gem-ARA, MTT assay, BxPC-3 cells; assay type: cell-based, human; settings: Homo sapiens, up to 72 h, mean ± SD (n>3)
Procedure: as §2

[8] = test system: Panc-02 cells; experiment: Anti-proliferative activity, MTT assay, Panc-02 cells; assay type: cell-based; settings: Mus musculus, Panc02, 24 h
Procedure: as §1

[9] = test system: Panc-1-Luc tumors; experiment: Antitumor activity against orthotopic Panc-1-Luc tumors in nude mice, with tumor histology; assay type: in vivo
Source text: Nude mice with intrapancreatically injected Panc-1-Luc human pancreatic cancer cells were used as a mouse model of pancreatic cancer. The National Institutes of Health guidelines for animal use and care were followed Animal protocols were approved by the Institutional Animal Care and Use Committee at the University of Texas at Austin. Panc-1-Luc cells (Muniz VP et al. Mol Cancer Res. 2011, 9(7), 867-877) were implanted orthotopically by injecting 1×10^6 cells into (the tail of) the pancreas.
Panc-1-Luc cell suspension was prepared at a concentration of 2×10^7 per ml in a 1:1 (v/v) mixture of DMEM and Matrigel. Tumor cells were then injected into the pancreas of male athymic nude mice (6-8 weeks, Charles River Laboratories, Wilmington, Mass.) following a surgical procedure (Raut CP et al. Cancer Biol Ther. 2004, 3(12), 1217-1224; Bruns CJ et al. Neoplasia. 1999, 1(1), 50-62). Briefly, after mice were anesthetized using isoflurane, the skin and peritoneum were cut open about 1 cm in length using sterile surgical scalpels. The pancreas was pulled out, and 50 μL of the cell suspension were injected slowly until a small bleb was formed. After the needle was withdrawn, a small cotton plug was applied for 10 s. The pancreas was returned back, the peritoneum was sutured with Monocryl™ bioresorbable sutures (Ethicon, Somerville, N.J.), and the skin was then closed using surgical clips. Mice were s.c. injected with buprenorphine (0.1 mg/kg) as a pain killer and were left to heal for one week. Tumor progress was monitored using an IVIS™ Spectrum imaging system (Caliper, Hopkinton, MA). For IVIS imaging, each mouse was i.p. injected with a luciferin solution (15 mg/ml) at a dose of 0.15 mg/g body weight in sterile DPBS, anesthetized with isoflurane, and imaged 10 min after luciferin injection. Four weeks after tumor implantation, mice with tumors were randomized into 3 groups (n=5-7) and intraperitoneally injected (i.p) with Gem-DHA (50 mg/kg, ˜0.087 mmole/kg), gemcitabine HCl (26.1 mg/kg, ˜0.087 mmole/kg), or left untreated. Gem-DHA was in a Tween 80/ethanol/water solution with 5% (w/v) of mannitol, and gemcitabine HCl was in sterile mannitol solution (5%, w/v). Treatments were repeated twice a week for a total 7 doses. Thirty days after the first treatment, mice were sacrificed and tumors were dissected from the pancreas, weighed, and fixed in formalin. The doses were based on the average weight of mice in the same group on the day of injection, and were adjusted only if the weight of an individual mouse was above or below 10% of the average weight.
Tumor tissues were sectioned and stained in the Histology and Tissue Analysis Core at Dell Pediatric Research Institute at the University of Texas at Austin or in the Department of
Molecular Carcinogenesis at the University of Texas M.D. Anderson Cancer Center at Science Park (Smithville, Texas) with hematoxylin & eosin (H&E), antibodies against cleaved lamin-A (apoptosis marker), CD-31 (angiogenesis marker), or Ki-67 (proliferation marker). Slides were then scanned, and images were taken using the ScanScope XT (Aperio Technologies, Vista, CA). […] In addition, several areas of necrosis can also be seen in the centers of the tumors. […] Several pyknotic cells with condensed chromatin can also be seen in tumors in mice that were treated with Gem-DHA.

[10] = test system: Panc-02 tumor cells; experiment: Cytotoxicity after 4 h co-incubation, MTT test; assay type: cell-based, mouse; settings: Panc-02 cells, at concentrations of more than 80 μM
Procedure: The mechanisms underlying the cytotoxicity of the Gem-DHA may be different from that of gemcitabine. For example, in cell culture studies, Panc-02 cells were seeded into 96-well plates (1,500 cells per well) and incubated at 37° C., 5% CO2 for 24 h. They were then co-incubated with various concentrations of Gem-DHA, gemcitabine HCl alone, or DHA alone for 4 h, and cell viability was determined using an MTT test.

Sequence of deoxycytidinedeaminases (dCDA) (P32320 whole entry): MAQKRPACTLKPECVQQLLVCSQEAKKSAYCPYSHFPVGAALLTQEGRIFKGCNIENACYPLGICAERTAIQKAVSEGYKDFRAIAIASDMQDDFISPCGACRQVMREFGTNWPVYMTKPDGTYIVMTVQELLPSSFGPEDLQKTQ

Nc1ccn([C@@H]2O[C@H](CO)[C@@H](O)C2(F)F)c(=O)n1 [Gemcitabine HCl, 2′, 2′-difluorodeoxycytidine, reference compound]
Fraction deaminated to dFdU [1]: over 90%
Control of tumor growth (tumor weight) [2]: did not reveal any significant difference
Improvement in median survival duration ([3]; patients with advanced pancreatic cancer): 5 week
12-month survival ([3]; standard care for advanced pancreatic cancer): 18%
IC50 [4]: 18.5 ± 14.5 nM
IC50 [5]: 50.2 ± 3 nM
Percent of injected compound recovered in each gram of pancreas [6]: 0.07±0.03%
IC50 [7]: 5.52 ± 4.55 nM
IC50 [8]: 4 ± 1.5 nM
Average tumor weight at the end of the study ([9]; 30 days after first treatment, versus untreated): not significantly different from that in mice that were left untreated
Inhibition of growth of Panc-1-Luc tumors ([9]; i.p., ~0.087 mmole/kg (Gem-DHA 50 mg/kg, gemcitabine HCl 26.1 mg/kg), twice a week, 7 doses): did not significantly inhibit the growth
Cleaved lamin-A positive staining in tumors ([9]; versus untreated mice): not different from that in mice that were not treated
Micro-vessel density (MVD) in tumors, anti-CD-31 staining ([9]; versus untreated mice): not different from that in mice that were not treated
Cytotoxicity after 4 h of co-incubation [10]: did not show any significant cytotoxicity
